For assay [1], the target named is NA of A/Illinois/45/2019 A(H1N1)pdm09 (Influenza A virus, UniProt A0A0X9QTS2). Type of assay: biochemical. The following applies: read-out: Mean IC50 ± SD.
In assay [2] the target is NA of A/fox/Michigan/22-014536-004/2022 (del50-70) (Influenza A virus, UniProt Q9Q0U7). The assay is classed as biochemical, influenza A(H5N1) virus. The following applies: read-out: Mean IC50 ± SD.
The target in assay [3] is NA of A/black vulture/Florida/22-012333-001/2022 (N/S295, T/N438, mixed population) (Influenza A virus (H5N1), UniProt Q9Q0U7). The assay is classed as biochemical. The following applies: read-out: Mean IC50 ± SD.
Assay [4] concerns the target NA of A/fox/Wisconsin/22-013774-002/2022 (Influenza A virus, UniProt Q9Q0U7). Type of assay: biochemical. The following applies: read-out: Mean IC50 ± SD.
Assay [5] addresses NA of A/Canada goose/Wyoming/22-011671-001/2022 (Influenza A virus, UniProt Q9Q0U7). The assay is classed as biochemical, influenza A(H5N1) virus. The following applies: read-out: Mean IC50 ± SD.
Assay [6] has as its target NA of A/red-shouldered hawk/Minnesota/22-012000-004/2022 (Influenza A virus, UniProt Q9Q0U7). Type of assay: biochemical. The following applies: read-out: Mean IC50 ± SD.
Assay [7] addresses NA of A/black vulture/Maryland/22-012407-001/2022 (Influenza A virus (H5N1), UniProt Q9Q0U7). The assay is classed as biochemical. The following applies: read-out: Mean IC50 ± SD.
For assay [8], the target named is NA of A/bald eagle/Florida/22-006544-004/2022 (Influenza A virus, UniProt Q9Q0U7). The assay is classed as biochemical. The following applies: read-out: Mean IC50 ± SD.
The target in assay [9] is NA of A/Cooper's hawk/Minnesota/22-012931-001/2022 (Influenza A virus, UniProt Q9Q0U7). Type of assay: biochemical, influenza A(H5N1) virus. The following applies: read-out: Mean IC50 ± SD.
The target in assay [10] is NA of A/turkey/Iowa/22-012098-001/2022 (Influenza A virus, UniProt Q9Q0U7). The assay is classed as biochemical. The following applies: read-out: Mean IC50 ± SD.
Assay [11] relates to A/Illinois/08/2018 A(H1N1)pdm09. Kind of assay: microbe, parasite or virus in culture. The assay is classed as cell-based, influenza A(H1N1)pdm09 virus. The following applies: Influenza A virus, H1N1, read-out: Mean EC50 ± SD.
Assay [12] relates to A/bald eagle/Florida/22-006544-004/2022. Kind of assay: microbe, parasite or virus in culture. The assay is classed as cell-based, influenza A(H5N1) virus. The following applies: Influenza A virus, read-out: Mean EC50 ± SD.
The test system of assay [13] is A/Illinois/08/2018 A(H1N1)pdm09. Type of assay: cell-based, influenza A(H1N1)pdm09 virus. The following applies: read-out: Mean EC50 ± SD.
Assay [14] has as its system A/Louisiana/50/2017 A(H3N2). The assay can be described thus: microbe, parasite or virus in culture. Type of assay: cell-based. The following applies: Influenza A virus, H3N2, read-out: Mean EC50 ± SD.
For assay [15], the system named is A/fox/Wisconsin/22-014746-030/2022. The assay can be described thus: microbe, parasite or virus in culture. The assay is classed as cell-based, influenza A(H5N1) virus. The following applies: Influenza A virus, read-out: Mean EC50 ± SD.
For assay [16], the system named is A/black vulture/Florida/22-012331-001/2022. The assay can be described thus: microbe, parasite or virus in culture. The assay is classed as cell-based, influenza A(H5N1) virus. The following applies: Influenza A virus, read-out: Mean EC50 ± SD.

Like-named read-outs stand apart in the source and are kept apart here.

A word on the IC50: it is the midpoint of a concentration-inhibition curve. In the case of oseltamivir carboxylate, the half-maximal inhibitory concentration (IC50) in [1] was 0.17 ± 0.03 nM.
For the compound peramivir, the IC50 in assay [2] was found to be 0.1 nM; in assay [3], 0.55 nM; in assay [4], 0.09 nM; in assay [5], 0.08 nM; in [6] it was 0.09 nM; in assay [7], 0.1 nM. Moreover, the IC50 in assay [1] worked out at 0.06 ± 0.01 nM; in assay [8], 0.08 nM; in [9], 0.1 nM; in assay [10], 0.1 nM.
What is called EC50 is the midpoint of the concentration-response curve. As to `O=C1c2c(O)c(=O)ccn2N([C@@H]2c3ccccc3SCc3c2ccc(F)c3F)[C@@H]2COCCN12` [Baloxavir, baloxavir acid], the EC50 in assay [11] was 1.65 ± 0.44 nM; in assay [12], 0.41 nM; in assay [13] it was 1.12 ± 0.32 nM; in assay [14], 1.04 ± 0.43 nM; in assay [15], 0.32 nM; in assay [16], 0.44 nM.
